Measurements: ChEMBL document CHEMBL5523709, “Synthesis and Evaluation of diaryl ether modulators of the leukotriene A4 hydrolase aminopeptidase activity” (Eur J Med Chem, 2024)
Calls of active or inactive are those of the source. No cut-off for these calls is given here.

Experiments:
[1] = Metabolic stability in mouse liver microsomes assessed as depletion measured after 30 mins; assay type: ADME, Microsome; conditions: read-out: Drug degradation
Mus musculus [2] = organism: Mus musculus; test: Anti-inflammatory activity against 1000 CFU of Klebsiella pneumonia ATCC 43816 intranasal infected C57BL/6 mouse pneumonia model assessed as mouse survival treated a day after bacterial exposure measured upto 14 days; assay type: functional, organism-based; conditions: time <= 14.0 day
[3] = molecular target: T1, Leukotriene A-4 hydrolase (Homo sapiens) (UniProt P09960); test: Activation of human recombinant LTA4H aminopeptidase activity assessed as alanine-p-nitroanilide (Ala-pNA) hydrolysis at 10 uM measured within 2 mins time window by LCMS analysis
T1 sequence (whole entry): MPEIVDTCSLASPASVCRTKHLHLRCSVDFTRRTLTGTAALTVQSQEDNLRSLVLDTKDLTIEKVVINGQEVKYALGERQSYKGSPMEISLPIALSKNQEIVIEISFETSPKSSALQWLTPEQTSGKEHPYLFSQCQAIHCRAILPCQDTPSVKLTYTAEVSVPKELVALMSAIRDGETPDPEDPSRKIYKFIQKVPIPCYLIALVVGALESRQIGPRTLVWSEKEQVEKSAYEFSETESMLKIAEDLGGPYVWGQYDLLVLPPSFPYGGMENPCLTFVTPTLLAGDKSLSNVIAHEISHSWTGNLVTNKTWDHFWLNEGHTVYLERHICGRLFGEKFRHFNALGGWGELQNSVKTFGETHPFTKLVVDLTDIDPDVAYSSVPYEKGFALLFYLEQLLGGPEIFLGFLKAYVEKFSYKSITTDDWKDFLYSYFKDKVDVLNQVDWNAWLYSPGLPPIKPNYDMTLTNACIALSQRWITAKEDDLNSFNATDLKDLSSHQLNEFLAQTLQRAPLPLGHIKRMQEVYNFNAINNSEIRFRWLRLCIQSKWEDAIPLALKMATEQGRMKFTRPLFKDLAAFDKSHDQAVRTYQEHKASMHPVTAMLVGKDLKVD

Mus musculus [4] = organism: Mus musculus; test: Reduction in LTB4 level in 1000 CFU of Klebsiella pneumonia ATCC 43816 intranasal infected C57BL/6 mouse pneumonia model assessed as LTB4 level in bronchoalveolar lavage fluid (BALF) ELISA based by Epoxide hydrolase assay; assay type: functional
[5] = molecular target: T2, Leukotriene A-4 hydrolase (Homo sapiens, UniProt P09960); test: Activation of human recombinant LTA4H aminopeptidase activity assessed as alanine-p-nitroanilide (Ala-pNA) hydrolysis by LCMS analysis
T2 sequence (P09960 whole entry): T1 sequence (whole entry)

[6] = molecular target: T2, Leukotriene A-4 hydrolase; test: Inhibition of human recombinant LTA4H aminopeptidase activity assessed as alanine-p-nitroanilide (Ala-pNA) hydrolysis by LCMS analysis

C[C@]12CC[C@H]3[C@@H](CCC4=CC(=O)CC[C@@]43C)[C@@H]1CC[C@@H]2O [TESTOSTERONE]
metabolised at 0.5 h [1]: 98%

Nc1cc[nH]n1
metabolised at 0.5 h [1]: 18% | Activity (Mus musculus [2]): inactive | Activity [3]: inactive | Activity (Mus musculus [4]): Active

Nc1cc(-c2ccc(Oc3ccc(Cl)cc3)cc2)n[nH]1
EC50 [5]: 120 nM

Clc1ccc(Oc2ccc(N3CCNCC3)cc2)cc1
IC50 [6]: 3330 nM

Nc1nc(-c2ccc(Cc3ccccc3)cc2)cs1
EC50 [5]: 240 nM
